Test: In vitro release of Tacrolimus from plug samples into releasing medium buffer (PBS + BAK + Triton) at 37 degrees Celsius, HPLC-MS-MS
Format: physicochemical
Conditions: implants contain approximately 900 micrograms of TAC
Method: In an example of an embodiment of the composition of the present invention, plug samples containing Tacrolimus were prepared. Samples were incubated at 37 degrees Celsius for varying times to determine time effect on Tacrolimus release profile from the sample into a polar solution (PBS).
The solution included the following: 0.01M PBS, 0.005% BAK, and 0.1% TRITON X-100.
Composite weight 3 mg with 30% Tacrolimus.
Development of HPLC-MS-MS Method for Tacrolimus (TCM)
Table 2 provides a list of samples used in the sustained release profile and cumulative sustained release profile illustrated in FIGS. 4 and 5, respectively. Samples 19-1 to 19-8 are Type A, COM TAC 1. Samples 19-9 to 19-16 are Type A, COM TAC 2. Samples 19-17 to 19-24 are Type B, EPO TAC 1. Samples 19-25 to 19-32 are Type B, EPO TAC 2.

For `C=CC[C@@H]1/C=C(\C)C[C@H](C)C[C@H](OC)[C@H]2O[C@@](O)(C(=O)C(=O)N3CCCC[C@H]3C(=O)O[C@H](/C(C)=C/[C@@H]3CC[C@@H](O)[C@H](OC)C3)[C@H](C)[C@@H](O)CC1=O)[C@H](C)C[C@@H]2OC` [TAC, (3S,4R,5S,8R,9E,12S,14S,15R,16S,18R,19R,26aS)-5,19-dihydroxy-3-{(1E)-1-[(1R,3R,4R)-4-hydroxy-3-methoxycyclohexyl]prop-1-en-2-yl}-14,16-dimethoxy-4,10,12,18-tetramethyl-8-(prop-2-en-1-yl)-5,6,8,11,12,13,14,15,16,17,18,19,24,25,26,26a-hexadecahydro-3H-15,19-epoxypyrido[2,1-c][1,4]oxazacyclotricosine-1,7,20,21(4H,23H)-tetrone], the “TAC average release in vitro” value (first 3 months) was “about 1.7 μg/day”, the “TAC release in vitro” value (first month) was 2 µg/day and the “TAC steady state release in vitro” value (following 2-3 months) was 1.5 µg/day. For the same molecule, the “estimated duration of release in vitro” value was 6 months.
